Reference: patent US3932471A, “Azide” (priority 1973, dated 1976)
In brackets after ≈: the same amount, converted by molar mass.

Assays:
Type in all cases: in vivo
[1] = system: Southern corn rootworm (Diabrotica undecimpunctata howardi); assay: Soil activity against Southern corn rootworm; settings: 120 h
Procedure: Activity of Compound 7268 Against Southern Corn Rootworm
The test organism is a strain of Southern corn rootworm (Diabrotica undecimpunctata howardi) resistant to chlorinated hydrocarbon insecticides and the test compound is Compound 7268. Duplicate samples of sand-soil mixtures are treated with appropriate volumes of test formulation to give the desired dosages. The sand-soil samples are in covered paper cups, and several hours after drenching, all cups are given a thorough shaking to provide complete and uniform mixing of the chemical throughout the soil. One day after treatment, two corn seedlings and five rootworms are placed into each cup and the lids replaced. Five days later, mortality is determined.

Spotted Cucumber Beetle = assay: Systemic test against spotted cucumber beetle; settings: Diabrotica undecimpunctata
From the text: (§1) Systemic Test of Compound 7268 Against Lygus Bug and Spotted Cucumber Beetle
(§2) The techniques used are essentially the same for the systemic tests described above in Example 15. The test compound is Compound 7268. There is one Sieva bean plant per pot and five adult insects are caged on each plant. One plant is used for each test species.

Lygus Bug = assay: Systemic test against Lygus bug
From the text: as §1, §2

[2] = system: Mexican Bean Beetle Larvae; assay: Residual systemic activity against Mexican bean beetle larvae; settings: Epilachna varivestis
From the text: Residual Systemic Activity of Compound 7268 Against Mexican Bean Beetle Larvae
Three furrows are opened in soil contained in 8 × 10 × 3 inch fiber pans and 12 Pinto bean seeds are evenly distributed in each furrow. The test compound is Compound 7268. Appropriate volumes of test formulation to give the desired dosages are applied over the seeds in the open furrows, and the furrows are immediately closed. At the indicated weekly intervals, one leaf is harvested from each row, placed onto water agar in a plastic Petri dish, and infested with 10 one-day-old bean beetle larvae. Mortality is determined three days later.

[3] = system: housefly (Musca domestica); assay: Housefly spray test (HF); settings: 72 h, contact activity rating, 50% mortality, three days
Procedure: (§3) The compounds are evaluated for biological activity against the following representative pests: Mexican bean beetle (Epilachna varivestis), Southern army worm (Prodenia eridania), housefly (Musca domestica), bean aphid (Aphis fabae), and red spider mite (Tetranychus sp.). The last two pests are treated both by contact and systemic application.
(§4) For purposes of comparison, results obtained with known Compound 7472, Compound 7577, and aldicarb are included in the test results. Each test compound is rated using the following scale:
This test determines the insecticidal activity of the compound being tested against adult houseflies, Musca domestica. Stock formulations containing 500 ppm of each test chemical are prepared using the procedure described in Example 15 and are diluted to obtain the appropriate lower concentrations.
Ten adult flies are placed in a cylindrical screen cage 11/2 by 4 inches fabricated from 20-mesh stainless steel screening and are sprayed with 50 ml of the stock or diluted formulation. The flies are supplied food and drink from a dextrose solution by draping a paper wick over the outside of the screen cylinder and are able to feed and drink ad libitum. Percent mortality obtained is determined three days after treatment. Results of this test are shown in Table 7 as HF (housefly spray test).

[4] = system: Southern army worm (Prodenia eridania); assay: Southern army worm spray test (AW); settings: 72 h; contact activity rating, 50% mortality, three days
Procedure: as §3, §4
Southern Army Worm Spray Test
Paired fully expanded primary leaves excised from Scarlet runner bean plants are maintained in plastic tubes containing water and sprayed with the test formulation prepared as described in Example 15. After the spray deposit on the leaves is dry, the paired leaves are separated. One leaf is placed onto 1.5 percent water agar and infested with 10 newly hatched Southern army worm larvae. The covered test receptacle is held at 72° F for three days and then the percent mortality is determined. Results of this test are shown in Table 7 as AW (Southern army worm spray test).

[5] = system: melon aphid (Aphis gosyppi); assay: Systemic activity against melon aphid; settings: cucumber seedlings
From the text: Systemic Activity of Compound 7268 Against Melon Aphid
The techniques used are essentially the same as for the systemic tests described above in Example 15. The test plants are cucumber seedlings; the test compound is Compound 7268; and the pest is the melon aphid (Aphis gosyppi).

Molecule `CNC(=O)ON=C(CSC)C(C)(C)C` [Compound 7268, 3,3-dimethyl-2-methylcarbamyloximino-1-methylthiobutane] has a mortality at 1 lb/6" A [1] of 90%, a mortality at 1.25 lb/6" A [1] of 100% and a mortality at 2.5 lb/6" A [1] of 100%. For the same molecule, the mortality at 560.425 g/ha (Spotted Cucumber Beetle; 72 h) was 20%, the mortality at 1120.85 g/ha (Spotted Cucumber Beetle; 72 h) was 30% and the mortality at 2241.7 g/ha (Spotted Cucumber Beetle; 72 h) was 60%. It also gave a mortality at 560.425 g/ha (Spotted Cucumber Beetle; 96 h) of 40%, a mortality at 1120.85 g/ha (Spotted Cucumber Beetle; 96 h) of 100% and a mortality at 2241.7 g/ha (Spotted Cucumber Beetle; 96 h) of 100%. For the same molecule, the mortality at 560.425 g/ha (Spotted Cucumber Beetle; 144 h) was 80%, the mortality at 1120.85 g/ha (Spotted Cucumber Beetle; 144 h) was 100% and the mortality at 2241.7 g/ha (Spotted Cucumber Beetle; 144 h) was 100%. The “% Mortality” value (Lygus Bug; 0.5 lb/A, 3 days) was 0%, the “% Mortality” value (Lygus Bug; 0.5 lb/A, 4 days) was 60% and the “% Mortality” value (Lygus Bug; 0.5 lb/A, 6 days) was 80%. For the same molecule, the “% Mortality” value (Lygus Bug; 1 lb/A, 3 days) was 80%, the “% Mortality” value (Lygus Bug; 1 lb/A, 4 days) was 80% and the “% Mortality” value (Lygus Bug; 1 lb/A, 6 days) was 100%. For the same molecule, the “% Mortality” value (Lygus Bug; 2 lb/A, 3 days) was 100%, the “% Mortality” value (Lygus Bug; 2 lb/A, 4 days) was 100% and the “% Mortality” value (Lygus Bug; 2 lb/A, 6 days) was 100%. It also gave a mortality at 280.212 g/ha ([2]; 504 h) of 100%, a mortality at 560.425 g/ha ([2]; 504 h) of 100% and a mortality at 1120.85 g/ha ([2]; 504 h) of 100%. For the same molecule, the mortality at 280.212 g/ha ([2]; 1176 h) was 100%, the mortality at 560.425 g/ha ([2]; 1176 h) was 100% and the mortality at 1120.85 g/ha ([2]; 1176 h) was 100%. It also gave a mortality at 280.212 g/ha ([2]; 1680 h) of 100%, a mortality at 560.425 g/ha ([2]; 1680 h) of 100% and a mortality at 1120.85 g/ha ([2]; 1680 h) of 95%. For the same molecule, the mortality at 280.212 g/ha ([2]; 1848 h) was 95%, the mortality at 560.425 g/ha ([2]; 1848 h) was 70% and the mortality at 1120.85 g/ha ([2]; 1848 h) was 95%. The LC50 [3] was 250 to 500 µg/mL (≈ 1150 to 2290 µM), the LC50 [4] was > 500 µg/mL and the “% Control” value ([5]; 0.062 lb/A) was 100%. For the same molecule, the “% Control” value ([5]; 0.125 lb/A) was 100%, the “% Control” value ([5]; 0.25 lb/A) was 100% and the “% Control” value ([5]; 0.5 lb/A) was 100%.
